Patent publication US11291655B2, “RAD51 inhibitors” (Cyteir Therapeutics, Inc., priority 2017, dated 2022)

test system: Daudi Cell Culture; test: Compound primary screening in Daudi cell culture; type: cell-based; details: Daudi cells, 1250 cells per well, reads on Day 7
Description: Compound Primary Screening
1. Materials and Supplies
Plastic ware and consumables needed for this experiment include: Cell Culture media; Evaporation Buffer media; 100% DMSO; 96 well U-bottom sterile culture plates; 250 mL bottle; 1.5 mL Opaque amber epi tubes; Epi Tube rack; 300 mL reservoirs; 25 mL reservoir; 25 mL serological pipette tips; 5 mL serological pipette tips P1000 Pipette Tips; and P200 Pipette Tips.
Equipment needed for this experiment include: Viaflo 384 liquid handler; Eppendorf serological pipette; Eppendorf P1000 Pipette; and Eppendorf P200 Pipette
Daudi Cell Culture is also needed for this experiment.
Lastly, compounds (e.g., the compounds of this invention) to be tested are needed.
All steps were performed in a sterile environment inside the Biosafety cabinet.
A 96 well u-bottom plate was prepared by writing the experiment number, plate number, date and initials in the top right corner of the plate lid. With a sterile 300 ml reservoir, and 25 ml serological pipette, evaporation buffer media was pipetted into reservoir in 25 ml increments. Using the liquid handler, 150 ul of evaporation buffer media was pipetted from reservoir into rows A and H, and Columns 1 and 12 of the 96 well u-bottom plate. Cell cultures were counted to obtain the density of cells per ml, and the culture viability. The cell density information was used to obtain 1,000,000 cells from culture using a 5 mL serological pipette into an epi tube. The cell density information from the culture was used to calculate the number of cells and volume of media needed for the assay to seed 1250 cells in 130 ul of media per available culture well in the 96 well u-bottom plate. Rows B through F were used for cells (50 wells in total), with row G left for an empty media control. The calculation was overestimated by 10 mL to account for the dead volume in the 300 ml reservoir. Once the media volume was calculated, the appropriate volume of media was pipetted in 25 mL increments into the 250 mL bottle using a 25 mL serological pipette. The 250 ml bottle was capped tightly, and placed into a 37° C. water bath for 2 minutes. While the culture media was warming, 10 mL of fresh media was pipetted from the 500 mL culture media bottle into a sterile 25 mL reservoir. Using the Eppendorf multichannel pipette, 130 ul of media was pipetted from the 25 mL reservoir into row G of the 96 well u-bottom plate. Once the 250 mL bottle of media was warmed, the volume of culture needed was pipetted into the bottle, and mixed gently with a 25 mL serological pipette as to not create bubbles, and then the contents of the bottle were pipetted into a new 300 mL reservoir. Using the liquid handler, 130 ul of culture was pipetted from the 300 mL reservoir into rows B through F of the 96 well u-bottom plate. Once the culture was added, the plate was placed into a 37° C. incubator until the compound master plate was prepared for use.
Two 96 well u-bottom plates were prepared by writing the master plate name in the upper right corner of the plate lid. Labeling one DMSO master and the other Media Master. The compounds of interest were obtained from the laboratory freezer, and placed into a 25 well storage box with a lid, and set the box aside. The compounds were vortexed after thawing but before use. Using an automatic multichannel pipette, 20 ul of 100% DMSO was pipetted into wells B3-B11 through G3-G11 of the DMSO master plate. For each compound on the master plate, 50 ul of the compound were pipetted in the appropriate well of row 2 (reference plate map to determine appropriate well). A serial dilution was prepared beginning by aspirating 20 ul from row 2 and mixing with row 3, repeating until row 11 was reached. Using the liquid handler, 194 ul of Daudi media was dispensed into wells B2-B11 through G2-G11 of the Media master plate. Using the liquid handler, 6 ul from the DMSO master plate was aspirated and dispensed into the media master plate, mixing 100 ul twice. […]

Compound	EC50 (μM)
Cc1cc(-c2ncc(-c3ccc(N4CCCC4=O)cc3S(=O)(=O)NC(C)(C)C)s2)ccc1NC(=O)OC(C)C [Compound J17]	FAIL

same assay, conditions: Homo sapiens, 168 h; Daudi cells, 1250 cells per well, reads on Day 7

Compound	EC50 [µM]
CC(C)OC(=O)Nc1ccc(-c2ncc(-c3ccc(NC(=O)C(C)C)cc3S(=O)(=O)NC(C)(C)C)s2)cc1 [Compound H10]	< 1
CC(=O)Nc1ccc(-c2cnc(-c3ccc(NC(=S)NC(C)C)cc3)s2)c(S(=O)(=O)NCCOCCO)c1 [Compound D26]	> 10
CC(C)OC(=O)Nc1ccc(-c2ncc(-c3ccc(NC(=O)OCC4CCCN4)cc3S(=O)(=O)NC(C)(C)C)s2)cc1 (centres unmarked) [Compound B7]	< 5
COc1cc(-c2ncc(-c3ccc(NC(=O)OC(C)C)cc3S(=O)(=O)NC(C)(C)C)s2)ccc1NC(=O)OC(C)C [Compound R3]	< 5
CC(=O)Nc1ccc(-c2cnc(-c3ccc(NC(=S)NC(C)C)cc3)s2)c(S(=O)(=O)NCC(C)(C)CO)c1 [Compound D4]	> 10
CCC(=O)NCc1ccc(-c2cnc(-c3ccc(NC(=O)OC(C)C)cc3)s2)c(S(=O)(=O)NC(C)(C)C)c1 [Compound P1]	< 10
CC(C)OC(=O)Nc1ccc(-c2ncc(-c3ccc(NC(=O)OCc4ccccn4)cc3S(=O)(=O)NC(C)(C)C)s2)cc1 [Compound B3]	< 1
COC(=O)Nc1ccc(-c2ncc(-c3ccc(NC(C)=O)cc3S(=O)(=O)NC(C)(C)C)s2)cc1 [Compound G2]	< 10
CC(=O)Nc1ccc(-c2cnc(-c3ccc(NC(=S)NC(C)C)cc3)s2)c(S(=O)(=O)N2CCCC2)c1 [Compound D13]	> 10
CC(C)NC(=S)Nc1ccc(-c2ncc(-c3ccc(NC(=O)NCc4nccs4)cc3S(=O)(=O)NC(C)(C)C)s2)cc1 [Compound M6]	> 10
CC(=O)Nc1ccc(-c2cnc(-c3ccc(N4CC(C)(C)OC4=O)cc3)s2)c(S(=O)(=O)NC(C)(C)C)c1 [Compound J13]	> 10
CNS(=O)(=O)c1cc(NC(C)=O)ccc1-c1cnc(-c2ccc(NC(=S)NC(C)C)cc2)s1 [Compound D6]	> 10
CC(C)OC(=O)Nc1ccc(-c2ncc(-c3ccc(N4CCCC4=O)cc3S(=O)(=O)NC(C)(C)C)s2)cc1F [Compound J9, isopropyl N-[4-[5-[2-(tert-butylsulfamoyl)-4-(2-oxopyrrolidin-1-yl)phenyl]thiazol-2-yl]-2-fluoro-phenyl]carbamate]	< 5
CC(C)NC(=S)Nc1ccc(-c2ncc(-c3ccc(NC(=O)NCc4cccnc4)cc3S(=O)(=O)NC(C)(C)C)s2)cc1 [Compound M3]	< 10
CC(C)OC(=O)Nc1ccc(-c2ncc(-c3ccc(CNC(=O)C(C)C)cc3S(=O)(=O)NC(C)(C)C)s2)cc1 [Compound P2]	< 5
CC(C)OC(=O)Nc1ccc(-c2ncc(-c3ccc(NC(=O)OCCc4ccccc4)cc3S(=O)(=O)NC(C)(C)C)s2)cc1 [Compound B8]	< 1
C/C=C/COC(=O)Nc1ccc(-c2cnc(-c3ccc(NC(=O)OC(C)C)cc3)s2)c(S(=O)(=O)NC(C)(C)C)c1 [Compound B12]	< 1
CC(=O)Nc1ccc(-c2cnc(-c3ccc(NC(=S)NC(C)C)cc3)s2)c(S(=O)(=O)N2CCNCC2)c1 [Compound A3]	< 5
CNC(=O)c1ccc(-c2cnc(-c3ccc(NC(=O)OC(C)C)cc3)s2)c(S(=O)(=O)NC(C)(C)C)c1 [Compound I5]	< 5
COC(=O)[C@@H](NS(=O)(=O)c1cc(NC(C)=O)ccc1-c1cnc(-c2ccc(NC(=S)NC(C)C)cc2)s1)C(C)C [Compound D2]	> 10
CC(C)OC(=O)Nc1ccc(-c2ncc(-c3ccc(N4CCC(Cc5ccccc5)C4=O)cc3S(=O)(=O)NC(C)(C)C)s2)cc1 (centres unmarked) [Compound J28, isopropyl (4-(5-(4-(3-benzyl-2-oxopyrrolidin-1-yl)-2-(N-(tert-butyl)sulfamoyl)phenyl)thiazol-2-yl)phenyl)carbamate]	> 10
CC(=O)Nc1ccc(-c2cnc(-c3ccc(NC(=S)NC(C)C)cc3S(=O)(=O)NC(C)(C)C)s2)c(S(=O)(=O)NC(C)(C)C)c1 [Compound E9]	< 1

Compound	EC50 [µM]
CC(C)OC(=O)Nc1ccc(-c2ncc(-c3ccc(CNC(=O)Cc4cccnc4)cc3S(=O)(=O)NC(C)(C)C)s2)cc1 [Compound O6]	> 10
CC(C)NC(=S)Nc1ccc(-c2ncc(-c3ccc(N(C)C(=O)NCc4ccccc4)cc3S(=O)(=O)NC(C)(C)C)s2)cc1 [Compound Q3]	< 1
CCC(=O)Nc1ccc(-c2cnc(-c3ccc(NC(=O)OC(C)C)cc3)s2)c(S(=O)(=O)NC(C)(C)C)c1 [Compound H4]	< 1
CC(C)OC(=O)Nc1ccc(-c2ncc(-c3ccc(C(=O)NCc4ccccc4)cc3S(=O)(=O)NC(C)(C)C)s2)cc1 [Compound K1]	> 10
CC(=O)Nc1ccc(-c2cnc(-c3ccc(NC(=O)OC(C)(C)C)cc3)s2)c(S(=O)(=O)NC(C)(C)C)c1 [Compound G11, tert-butyl N-[4-[5-[4-acetamido-2-(tert-butylsulfamoyl)phenyl]thiazol-2-yl]phenyl]carbamate]	< 5
CCS(=O)(=O)Nc1ccc(-c2ncc(-c3ccc(NC(C)=O)cc3S(=O)(=O)NC(C)(C)C)s2)cc1 [Compound G7]	> 10
COC(=O)[C@H](CO)NS(=O)(=O)c1cc(NC(C)=O)ccc1-c1cnc(-c2ccc(NC(=S)NC(C)C)cc2)s1 [Compound D15]	> 10
CC(O)CNc1ccc(-c2cnc(-c3ccc(NC(=O)OC(C)C)cc3)s2)c(S(=O)(=O)NC(C)(C)C)c1 (centres unmarked) [Compound J25, isopropyl N-[4-[5-[2-(tert-butylsulfamoyl)-4-(2-hydroxypropylamino)phenyl]thiazol-2-yl]phenyl]carbamate]	< 5
CC(C)OC(=O)Nc1ccc(-c2ncc(-c3cc(NC(=O)OCc4ccccc4)ccc3S(=O)(=O)NC(C)(C)C)s2)cc1 [Compound K2]	> 10
CC(C)OC(=O)Nc1ccc(-c2ncc(-c3ccc(CNC(=O)C4CCNCC4)cc3S(=O)(=O)NC(C)(C)C)s2)cc1 [Compound O1]	< 10
CC(=O)Nc1ccc(-c2ncc(-c3ccc(NC(=S)NC(C)C)cc3S(=O)(=O)NC(C)(C)C)s2)c(S(=O)(=O)NC(C)(C)C)c1 [Compound E21]	< 5
CC(C)NC(=S)Nc1ccc(-c2ncc(-c3ccc(NC(=O)OC(C)c4ccccc4)cc3S(=O)(=O)NC(C)(C)C)s2)cc1 (centres unmarked) [Compound M8]	< 10
CCOC(=O)Nc1ccc(-c2cnc(-c3ccc(NC(=S)NC(C)C)cc3)s2)c(S(=O)(=O)NC(C)(C)C)c1 [Compound L5]	< 5
CC(C)NC(=S)Nc1ccc(-c2ncc(-c3ccc(NC(=O)NC(C)c4ccccc4)cc3S(=O)(=O)NC(C)(C)C)s2)cc1 (centres unmarked) [Compound M7]	< 10
CC(C)NC(=S)Nc1ccc(-c2ncc(-c3ccc(NC(=O)NCc4ccc(O)cc4)cc3S(=O)(=O)NC(C)(C)C)s2)cc1 [Compound N1, N-(tert-butyl)-5-(3-(4-hydroxybenzyl)ureido)-2-(2-(4-(3-isopropylthioureido)phenyl)thiazol-5-yl)benzenesulfonamide]	< 10
CC(=O)Nc1ccc(-c2cnc(-c3ccc(NC(=S)NC(C)C)cc3)s2)c(S(=O)(=O)N(C)C)c1 [Compound D10]	< 1
CC(C)OC(=O)Nc1ccc(-c2ncc(-c3ccc(NC(=O)OCC4CCCCC4)cc3S(=O)(=O)NC(C)(C)C)s2)cc1 [Compound B10]	< 1
CC(=O)Nc1ccc(-c2ncc(-c3ccc(NC(=S)NC(C)C)cc3S(=O)(=O)NC(C)(C)C)s2)cc1 [Compound E5]	< 10
CC(C)OC(=O)Nc1ccc(-c2ncc(-c3ccc(C(N)=O)cc3S(=O)(=O)NC(C)(C)C)s2)cc1 [Compound I6]	< 5
CC(=O)Nc1ccc(-c2cnc(-c3ccc(NC(=S)NC(C)C)cc3)s2)c(S(=O)(=O)N2CCOCC2)c1 [Compound D8]	> 10
CC(=O)N(C)c1ccc(-c2cnc(-c3ccc(N)cc3)s2)c(S(=O)(=O)NC(C)(C)C)c1 [Compound E14]	> 10
